In patent publication US20230150951A1, “2,5- OR 2,6-DISUBSTITUTED HYDROQUINONE DERIVATIVES WITH AT LEAST ONE CARBOXY, SULFO OR AMIDO GROUP USEFUL AS MEDICAMENTS” (OM PHARMA SA, priority 2020, published 2023):

Columns and labels:
[1] = system: thioglycolate-induced peritonitis; assay: Thioglycolate-induced peritonitis murine model; assay type: in vivo, C57BL/6J mice; conditions: 50 mg/kg i.p. 1 h prior to thioglycolate
Description: Therapeutic efficacy of the compounds of the present invention was assessed using thioglycolate-induced peritonitis murine models as described by Cook A D et al. (J Immunol. 2003; 171(9):4816-4823) and Tsai J M et al. (Blood Adv. 2019; 3(18):2713-2721. doi: 10.1182/bloodadvances.2018024026).
C57BL/6J mice were injected intraperitoneally (i.p.) with 1 mL of compounds at 50 mg/kg 1 h prior to the induction of peritonitis. Peritonitis was then induced with 1 ml of sterile thioglycolate broth 4% (wt/vol) or PBS as control. After 3 h, mice were anesthetized by i.p. injection with a solution of PBS containing 5 mg/ml ketamine and 1 mg/ml xylazine and peritoneal cavities were washed with 5 ml ice-cold sterile Ca2+/Mg2+-free HBSS 1×containing EDTA 2 mM. Peritoneal exudate cells (PECs) were centrifuged at 1200 rpm for 5 min at 4° C. and red cells lysed. PECs were washed, resuspended in PBS 10% FBS, incubated with anti-CD16/CD32 and mIgG FcR blockers and then stained with fluorescently conjugated antibodies to characterize migrated leukocytes (anti-CD45, anti-CD11b, anti-Ly6G, anti-CD8a, anti-CD4, anti-CD3). Cell viability was measured by 7-AAD exclusion. Specimens were acquired by flow cytometry using MACSQuant Analyzer (Miltenyi Biotec) and analysed using FlowJo software.
Animals: four C57BL/6J mice per group for each compound versus four vehicle treated mice.
Read out was done 1 h after thioglycolate injection.
Readout method: flow cytometry to characterise migrated leukocytes using anti-CD45, anti-CD11b, anti-Ly6G, anti-CD8a, anti-CD4, anti-CD3.
Results and statistical analysis: Results were analysed using FlowJo software. Data were shown as mean±SEM. Two-tailed Student's t test using a significance level of 0.05 is used for the statistical analysis.

ARPE-19 cells = assay: ROS and cytokine/VEGF mRNA production by ARPE-19 monolayer cells in non-diabetic and diabetic milieu; assay type: cell-based, human; conditions: ARPE19 monolayer; for ROS: ROS % to 25 mM D-Glucose; for IL-1β R.Q. mRNA / IL-6 R.Q. mRNA / IL-18 R.Q. mRNA / TNFα R.Q. mRNA / VEGF R.Q. mRNA: relative change vs 25 mM D-Gluc
Description: Outer Blood Retinal Barrier conditions: human retinal pigment epithelial cells (RPE) cultures ARPE-19, a spontaneously immortalised human RPE cell line were obtained from American Type Culture Collection (Manassas, Va., USA). ARPE-19 cells and they were cultured in euglycaemic conditions (D-glucose (D-Glc), 5.5 mmol/L) and hyperglycaemic conditions (D-glucose, 25 mmol/L) for 18 days at 37° C. under 5% (vol./vol.) CO2 in medium (DMEM/F12) supplemented with 10% (vol./vol.) FBS (Hyclone; Thermo Fisher Scientific, UT, USA) and 1% (vol./vol.) penicillin/streptomycin (Hyclone; Thermo Fisher Scientific). ARPE-19 cells from passage 20 were used and the medium changed every 3-4 days. For permeability studies, ARPE-19 cells were seeded at 400,000 cells/ml (80,000 RPE cells/well) in 0.33 cm^2 HTS-Transwells (Costar; Corning, N.Y., USA). For real-time PCR, western blot analysis and immunofluorescence cells are seeded at 20,000 cells/ml.
Experimental conditions and treatments: apart from the euglycemic condition, eighteen different conditions were tested in cells cultured under 25 mmol/L D-glucose:
• Proinflammatory cytokines were evaluated in ARPE-19 cells by RT-PCR and mRNA for IL-6, TNF-α, IL-1β, IL-18, VEGF, IL-10, FGF were measured using the double delta CT method 2-ΔΔCT with Cts values for the gene of interest and the endogenous human B-actin to obtain ΔCT; mRNA values were expressed as relative change with respect to the condition 25 mM D-Gluc. (ref: Livak K J, Analysis of Relative Gene Expression Data Using Real-Time Quantitative PCR and the 2-ΔΔCT Method, Methods, 2001, 25(4), 402-408, doi 10.1006/meth.2001.1262) • ROS production was evaluated using Cell Biolabs' OxiSelect™ Intracellular ROS Assay (Green Fluorescence) (Bionova, Madrid, Spain). The assay employs the cell-permeable fluorogenic probe 2′, 7′-Dichlorodihydrofluorescin diacetate (DCFH-DA), oxidized to highly fluorescent 2′, 7′-Dichlorodihydrofluorescein (DCF) by cellular ROS. • Endothelin-1, PDGF and VCAM-1 expression was analyzed in HREC monolayers by immunohistochemical analysis and by RT-PCR. • TJ expression (ZO) is analyzed in ARPE-19 and HREC monolayers by immunohistochemical analysis.

[2] = system: STZ-induced diabetes model; assay: STZ-induced diabetes and diabetic wound healing model; assay type: in vivo, CD-1 mice; conditions: IV; vs induced vehicle controls
Description: Diabetes murine models using streptozotocin (STZ-induced diabetes) were used to assess efficacy of compounds of the present invention for a diabetic wound healing and generate tissue samples to allow post in-life analysis of skin tissue.
These were purchased from Charles River and acclimated for 7 days upon arrival.
Aseptic technique and dosing: Although animals to be used in this study are immuno-competent, preparation of dosing solutions and dosing/weighing of animals were carried out in a sterile biosafety cabinet. IV dosing: Compounds were formulated in 5% DMSO: 10% Solutol: 10% PEG400: 75% PBS and pH adjusted to 7 with 0.5M NaOH solution. PO dosing: formulation is in water.
Animals were anaethetised and a full thickness 6 mm wound created using a sterilized biopsy punch. Wounds were imaged (Days 0). Animals were treated and imaged every 2 days out to day 14 (when control, non-diabetic mouse wounds were healed). Wound images were digitally assessed for area of wound and percentage closure versus time plotted graphically.
Treatment will continue for 2 weeks (14 days). Animal numbers in brackets are dosed for 7 days, then sampled for mid-study PD analysis.
Mid Study sampling: Following 7 days dosing 3 animals per group were killed and wound tissue removed and divided into 2 sections (A) and (B):
(A) First section is FFPE and stained with the following: H&E, Masson's Trichrome, CD31, TGF-β.
(B) Second section are homogenised and used for the following ELISAs: SOD, GTPx, Catalase, TNF-α, IL-6, TGF-β levels.

[3] = 25 mM D-Gluc, compound 25 μg/mL
[4] = 25 mM D-Gluc, compound 50 μg/mL
[5] = diabetic milieu (25 mM D-Gluc + VEGF, TNF-α, IL-1β), compound 25 μg/mL
[6] = diabetic milieu (25 mM D-Gluc + VEGF, TNF-α, IL-1β), compound 50 μg/mL

Structure (SMILES)	% of reduction, CD4+ lymphocytes, treated over vehicle treated mice [1] [%]	% of reduction, CD8+ lymphocytes, treated over vehicle treated mice [1] [%]	% of reduction, Leukocytes (CD45+ cells), treated over vehicle treated mice [1] [%]	% of reduction, PMNs (CD11b-Ly6G double + cells), treated over vehicle treated mice [1] [%]	ROS (ARPE-19 cells; [3]) [%]	IL-1β R.Q. mRNA (ARPE-19 cells; [3]) [R.Q.]	IL-6 R.Q. mRNA (ARPE-19 cells; [3]) [R.Q.]	IL-18 R.Q. mRNA (ARPE-19 cells; [3]) [R.Q.]	TNFα R.Q. mRNA (ARPE-19 cells; [3]) [R.Q.]	VEGF R.Q. mRNA (ARPE-19 cells; [3]) [R.Q.]	ROS (ARPE-19 cells; [4]) [%]	IL-1β R.Q. mRNA (ARPE-19 cells; [4]) [R.Q.]	IL-6 R.Q. mRNA (ARPE-19 cells; [4]) [R.Q.]	IL-18 R.Q. mRNA (ARPE-19 cells; [4]) [R.Q.]	TNFα R.Q. mRNA (ARPE-19 cells; [4]) [R.Q.]	VEGF R.Q. mRNA (ARPE-19 cells; [4]) [R.Q.]	ROS (ARPE-19 cells; [5]) [%]	IL-1β R.Q. mRNA (ARPE-19 cells; [5]) [R.Q.]	IL-6 R.Q. mRNA (ARPE-19 cells; [5]) [R.Q.]	IL-18 R.Q. mRNA (ARPE-19 cells; [5]) [R.Q.]	other results
O=C(O)c1cc(NC(=O)c2cc(O)c(C(=O)Nc3ccc(O)c(C(=O)O)c3)cc2O)ccc1O [Ic-007a, 5-(4-(3-carboxy-4-hydroxyphenylaminocarbonyl)-2,5-dihydroxybenzamido)-2-hydroxy benzoic acid]	35	71	48	80	32 ± 15	0.12 ± 0.01	0.52 ± 0.49	0.45 ± 0.18	0.27 ± 0.07	0.09 ± 0.02	26 ± 4.6	0.15 ± 0.03	0.20 ± 0.07	0.07 ± 0.01	0.59 ± 0.33	0.12 ± 0.03	33 ± 4.8	12.21 ± 1.46	0.52 ± 0.49	0.02 ± 0.00	Cell counts, CD4+ lymphocytes, treated mice ([1]; peritoneal exudate cells): 1.03 × 10^4; Cell counts, CD8+ lymphocytes, treated mice ([1]; peritoneal exudate cells): 0.54 × 10^4; Cell counts, Leukocytes (CD45+ cells), treated mice ([1]; peritoneal exudate cells): 31.3 × 10^4; Cell counts, PMNs (CD11b-Ly6G double + cells), treated mice ([1]; peritoneal exudate cells): 2.03 × 10^4; TNFα R.Q. mRNA (ARPE-19 cells; [5]): 11.26 ± 0.96 R.Q.; VEGF R.Q. mRNA (ARPE-19 cells; [5]): 0.06 ± 0.02 R.Q.; ROS (ARPE-19 cells; [6]): 27 ± 13 %; IL-1β R.Q. mRNA (ARPE-19 cells; [6]): 10.66 ± 3.01 R.Q.; IL-6 R.Q. mRNA (ARPE-19 cells; [6]): 3.28 ± 1.46 R.Q.; IL-18 R.Q. mRNA (ARPE-19 cells; [6]): 0.02 ± 0.00 R.Q.; TNFα R.Q. mRNA (ARPE-19 cells; [6]): 5.22 ± 3.96 R.Q.; VEGF R.Q. mRNA (ARPE-19 cells; [6]): 0.17 ± 0.05 R.Q.
O=C(O)c1cc(O)c(C(=O)Nc2ccccc2C(=O)O)cc1O [Ia-001a, 4-(2-carboxyphenylaminocarbonyl)-2,5-dihydroxybenzoic acid]																					Blood glucose levels [2]: significant reduction
O=C(O)c1cc(NC(=O)c2cc(O)cc(C(=O)Nc3ccc(O)c(C(=O)O)c3)c2O)ccc1O [IIc-007a, 5-(3-(3-carboxy-4-hydroxyphenylaminocarbonyl)-2,5-dihydroxybenzamido)-2-hydroxy benzoic acid]	40.0	20.0	11.8	27.3	55 ± 6.4	0.74 ± 0.26	0.73 ± 0.00	0.75 ± 0.09	0.57 ± 0.18	0.06 ± 0.01	72 ± 11	0.24 ± 0.11	0.34 ± 0.08	0.04 ± 0.00	0.45 ± 0.30	0.12 ± 0.03	47 ± 7.6	41.03 ± 17.57	10.83 ± 6.90	0.07 ± 0.01	TNFα R.Q. mRNA (ARPE-19 cells; [5]): 6.31 ± 0.06 R.Q.; VEGF R.Q. mRNA (ARPE-19 cells; [5]): 0.11 ± 0.01 R.Q.; ROS (ARPE-19 cells; [6]): 74 ± 38 %; IL-1β R.Q. mRNA (ARPE-19 cells; [6]): 11.39 ± 6.52 R.Q.; IL-6 R.Q. mRNA (ARPE-19 cells; [6]): 1.50 ± 1.19 R.Q.; IL-18 R.Q. mRNA (ARPE-19 cells; [6]): 0.03 ± 0.00 R.Q.; TNFα R.Q. mRNA (ARPE-19 cells; [6]): 4.24 ± 0.77 R.Q.; VEGF R.Q. mRNA (ARPE-19 cells; [6]): 0.13 ± 0.02 R.Q.
O=C(O)c1cc(O)c(CN(Cc2cc(O)c(C(=O)O)cc2O)Cc2cc(O)c(C(=O)O)cc2O)cc1O [IIIc-061a, Tris(4-carboxy-2,5-dihydroxyphenylmethyl)amine]	42.9	33.3	−2.4	−8.3																	Blood glucose levels [2]: significant reduction
O=C(O)c1cc(O)cc(CS(=O)(=O)Cc2cc(O)cc(C(=O)O)c2O)c1O [IVc-059a, 3-((2,5-Dihydroxy-3-carboxyphenyl)methylsulfonylmethyl)-2,5-dihydroxybenzoic acid]	6.0	23.0	4.0	−13.0	62 ± 9	0.20 ± 0.05	0.28 ± 0.11	0.07 ± 0.01	0.27 ± 0.08	0.11 ± 0.01	116 ± 12	0.21 ± 0.13	0.28 ± 0.11	0.04 ± 0.01	0.27 ± 0.10	0.06 ± 0.03	61 ± 40	20.81 ± 5.11	5.84 ± 1.13	0.03 ± 0.01	TNFα R.Q. mRNA (ARPE-19 cells; [5]): 5.39 ± 1.01 R.Q.; VEGF R.Q. mRNA (ARPE-19 cells; [5]): 0.04 ± 0.00 R.Q.; ROS (ARPE-19 cells; [6]): 159 ± 32%; IL-1β R.Q. mRNA (ARPE-19 cells; [6]): 27.76 ± 5.18 R.Q.; IL-6 R.Q. mRNA (ARPE-19 cells; [6]): 9.78 ± 2.30 R.Q.; IL-18 R.Q. mRNA (ARPE-19 cells; [6]): 0.01 ± 0.00 R.Q.; TNFα R.Q. mRNA (ARPE-19 cells; [6]): 3.61 ± 1.82 R.Q.; VEGF R.Q. mRNA (ARPE-19 cells; [6]): 0.20 ± 0.03 R.Q.; Blood glucose levels [2]: significant reduction
